In patent US20260041744A1, “Methods for Treating Pompe Disease” (Amicus Therapeutics, Inc., priority 2022, published 2026):
“And” between values parts separate entries of the source, which are not always exact repeats. Equal values may be shown once.

Experiments:
[1] = tested on: adults with Pompe disease; assay: Study ATB200-02 (20 mg/kg cipaglucosidase alfa IV + 260 mg miglustat): 6MWT (6MWD, % predicted 6MWD); format: in vivo, human;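 also: Open-label Phase I/II trial, ambulatory cohorts only, values are changes from baseline or counts relative to the baseline walk test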
Method: (§1) The change from baseline (CFBL) in 6MWD, % predicted sitting FVC, manual muscle test (MMT) and biomarkers—urine glucose tetrasaccharide (Hex4) and serum creatine kinase (CK)—were assessed at regular intervals.
The 4 cohorts in the study are as follows: • Cohort 1: ERT-experienced (2 to 6 years) ambulatory subjects (11 subjects) • Cohort 2: ERT-experienced (≥2 years) non-ambulatory subjects (6 subjects) • Cohort 3: ERT-naïve ambulatory subjects (6 subjects)· • Cohort 4: ERT-experienced (≥7 years) ambulatory subjects (6 subjects)
In Study ATB200-02, motor function was evaluated in all ambulatory subjects (ie, Cohorts 1, 3, and 4) (Table 23, FIGS. 46A-46D).

[2] = tested on: adults with Pompe disease; assay: Study ATB200-02: SGIC and PGIC; format: in vivo, human; details: 48 months follow-up
[3] = tested on: adults with Pompe disease; assay: Study ATB200-02: urine Hex4; details: for mean reduction from baseline in urine Hex4: b512 prints a minus sign;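 as to all read-outs here: Hex4 is the urine glucose tetrasaccharide biomarker, measured at regular intervals during study follow-up and compared with each patient's baseline value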
Method: as §1

[4] = Ambulatory ERT-experienced, 12 months
[5] = Ambulatory ERT-experienced, 24 months
[6] = Ambulatory ERT-experienced, 36 months
[7] = Ambulatory ERT-experienced, 48 months
[8] = Ambulatory ERT-naïve, 12 months
[9] = Ambulatory ERT-naïve, 24 months
[10] = Ambulatory ERT-naïve, 36 months
[11] = Ambulatory ERT-naïve, 48 months
[12] = Cohort 1 + Cohort 3 + Cohort 4, Month 12
[13] = Cohort 1 + Cohort 3 + Cohort 4, Month 24
[14] = Cohort 1 + Cohort 3 + Cohort 4, Month 36
[15] = Cohort 1 + Cohort 3 + Cohort 4, Month 48
[16] = Cohort 1, ambulatory ERT-experienced, N = 7
[17] = Cohort 2, non-ambulatory ERT-experienced, N = 5
[18] = Cohort 3, ambulatory ERT-naïve, N = 6
[19] = Cohort 4, ambulatory ERT-experienced, N = 6

ATB200/miglustat: two-component therapy: cipaglucosidase alfa (ATB200) administered in conjunction with miglustat (AT2221), a stabilizer of cipaglucosidase alfa
motor function by 6MWT ([1]; 48 months, Cohorts 1, 3, 4): clinically meaningful improvements in motor function as measured by the 6MWT
6MWD, CFBL mean [1, 4]: 33.5 meters
Percent predicted 6MWD, CFBL mean [1, 4]: 6.1
6MWD, CFBL mean [1, 5]: 25.2 meters
Percent predicted 6MWD, CFBL mean [1, 5]: 5.4
6MWD, CFBL mean [1, 6]: 9.8 meters
Percent predicted 6MWD, CFBL mean [1, 6]: 3.4
6MWD, CFBL mean [1, 7]: 20.7 meters
Percent predicted 6MWD, CFBL mean [1, 7]: 5.9
6MWD, CFBL mean [1, 8]: 57.0 meters
Percent predicted 6MWD, CFBL mean [1, 8]: 10.7
6MWD, CFBL mean [1, 9]: 54.4 meters
Percent predicted 6MWD, CFBL mean [1, 9]: 11.0
6MWD, CFBL mean [1, 10]: 43.5 meters
Percent predicted 6MWD, CFBL mean [1, 10]: 9.0
6MWD, CFBL mean [1, 11]: 52.2 meters
Percent predicted 6MWD, CFBL mean [1, 11]: 11.7
6MWD change from baseline, mean [1, 12]: 39.9 meters
6MWD change from baseline, median [1, 12]: 27.4 meters
6MWD change from baseline, mean [1, 13]: 34.4 meters
6MWD change from baseline, median [1, 13]: 22.6 meters
6MWD change from baseline, mean [1, 14]: 19.7 meters
6MWD change from baseline, median [1, 14]: 24.2 meters
6MWD change from baseline, mean [1, 15]: 30.4 meters
6MWD change from baseline, median [1, 15]: 27.0 meters
6MWD change from baseline, mean ([1]; Cohort 1 + Cohort 4 (ERT-experienced), Month 12, listed as cipaglucosidase alfa/miglustat): 33 meters and 33.5 meters
6MWD change from baseline, mean ([1]; Cohort 1 + Cohort 4 (ERT-experienced), Month 24, listed as cipaglucosidase alfa/miglustat): 25 meters and 25.2 meters
6MWD change from baseline, mean ([1]; Cohort 1 + Cohort 4 (ERT-experienced), Month 36, listed as cipaglucosidase alfa/miglustat): 9.8 meters
6MWD change from baseline, mean ([1]; Cohort 1 + Cohort 4 (ERT-experienced), Month 48, listed as cipaglucosidase alfa/miglustat): 20 meters and 20.7 meters
6MWD change from baseline, median ([1]; Cohort 1 + Cohort 4, Month 12): 20.6 meters
6MWD change from baseline, median ([1]; Cohort 1 + Cohort 4, Month 24): 18.5 meters
6MWD change from baseline, median ([1]; Cohort 1 + Cohort 4, Month 36): 11.6 meters
6MWD change from baseline, median ([1]; Cohort 1 + Cohort 4, Month 48): 27.0 meters
6MWD change from baseline, mean ([1]; Cohort 3 (ERT-naïve), Month 12, listed as cipaglucosidase alfa/miglustat): 57 meters and 57.0 meters
6MWD change from baseline, mean ([1]; Cohort 3 (ERT-naïve), Month 24, listed as cipaglucosidase alfa/miglustat): 54 meters and 54.4 meters
6MWD change from baseline, mean ([1]; Cohort 3 (ERT-naïve), Month 36, listed as cipaglucosidase alfa/miglustat): 43 meters and 43.5 meters
6MWD change from baseline, mean ([1]; Cohort 3 (ERT-naïve), Month 48, listed as cipaglucosidase alfa/miglustat): 52 meters and 52.2 meters
6MWD change from baseline, median ([1]; Cohort 3, Month 12): 55.6 meters
6MWD change from baseline, median ([1]; Cohort 3, Month 24): 49.0 meters
6MWD change from baseline, median ([1]; Cohort 3, Month 36): 59.0 meters
6MWD change from baseline, median ([1]; Cohort 3, Month 48): 40.5 meters
patients whose 6MWD improved numerically from baseline (n/N) ([1]; ERT-experienced, 12 months): 13/16
patients whose 6MWD improved numerically from baseline (n/N) ([1]; ERT-experienced, 24 months): 9/13
patients whose 6MWD improved numerically from baseline (n/N) ([1]; ERT-experienced, 36 months): 6/12
patients whose 6MWD improved numerically from baseline (n/N) ([1]; ERT-experienced, 48 months): 6/9
patients with improvement from baseline in mean % predicted 6MWD ([1]; ERT-experienced, Month 48): 88.9%
patients whose 6MWD improved numerically from baseline (n/N) ([1]; ERT-naïve, 12 months): 6/6
patients whose 6MWD improved numerically from baseline (n/N) ([1]; ERT-naïve, 24 months): 6/6
patients whose 6MWD improved numerically from baseline (n/N) ([1]; ERT-naïve, 36 months): 4/5
patients whose 6MWD improved numerically from baseline (n/N) ([1]; ERT-naïve, 48 months): 4/4
patients with improvement from baseline in mean % predicted 6MWD ([1]; ERT-naïve, Month 48): 100%
PGIC: Declined, % [2, 16]: (0) %
PGIC: Improved, % [2, 16]: (57.1) %
PGIC: No change, % [2, 16]: (42.9) %
SGIC; Overall physical wellbeing: Declined, % [2, 16]: (0) %
SGIC; Overall physical wellbeing: Improved, % [2, 16]: (85.7) %
SGIC; Overall physical wellbeing: No change, % [2, 16]: (14.3) %
PGIC: Declined, % [2, 17]: (0) %
PGIC: Improved, % [2, 17]: (60.0) %
PGIC: No change, % [2, 17]: (40.0) %
SGIC; Overall physical wellbeing: Declined, % [2, 17]: (0) %
SGIC; Overall physical wellbeing: Improved, % [2, 17]: (60.0) %
SGIC; Overall physical wellbeing: No change, % [2, 17]: (40.0) %
PGIC: Declined, % [2, 18]: (0) %
PGIC: Improved, % [2, 18]: (100.0) %
PGIC: No change, % [2, 18]: (0) %
SGIC; Overall physical wellbeing: Declined, % [2, 18]: (0) %
SGIC; Overall physical wellbeing: Improved, % [2, 18]: (83.3) %
SGIC; Overall physical wellbeing: No change, % [2, 18]: (16.7) %
PGIC: Declined, % [2, 19]: (0) %
PGIC: Improved, % [2, 19]: (33.3) %
PGIC: No change, % [2, 19]: (66.7) %
SGIC; Overall physical wellbeing: Declined, % [2, 19]: (16.7) %
SGIC; Overall physical wellbeing: Improved, % [2, 19]: (66.7) %
SGIC; Overall physical wellbeing: No change, % [2, 19]: (16.7) %
Urinary Hex4, % CFBL mean [3, 4]: −36.11%
Urinary Hex4, % CFBL mean [3, 5]: −11.8%
Urinary Hex4, % CFBL mean [3, 6]: −35.1%
Urinary Hex4, % CFBL mean [3, 7]: −4.0%
Urinary Hex4, % CFBL mean [3, 8]: −40.7%
Urinary Hex4, % CFBL mean [3, 9]: −49.5%
Urinary Hex4, % CFBL mean [3, 10]: −39.3%
Urinary Hex4, % CFBL mean [3, 11]: −39.9%
mean reduction from baseline in urine Hex4 ([3]; Cohort 2 (non-ambulatory ERT-experienced), 12 months, listed as cipaglucosidase alfa plus miglustat): 15.6%
mean reduction from baseline in urine Hex4 ([3]; Cohort 2 (non-ambulatory ERT-experienced), 12 months, listed as cipaglucosidase alfa/miglustat): −15.6%
mean reduction from baseline in urine Hex4 ([3]; Cohort 2, 24 months, listed as cipaglucosidase alfa plus miglustat): 34.1%
mean reduction from baseline in urine Hex4 ([3]; Cohort 2, 24 months, listed as cipaglucosidase alfa/miglustat): −34.1%
mean reduction from baseline in urine Hex4 ([3]; Cohort 2, 36 months, listed as cipaglucosidase alfa plus miglustat): 36.5%
mean reduction from baseline in urine Hex4 ([3]; Cohort 2, 36 months, listed as cipaglucosidase alfa/miglustat): −36.5%
mean reduction from baseline in urine Hex4 ([3]; Cohort 2, 48 months, listed as cipaglucosidase alfa plus miglustat): 9.4%
mean reduction from baseline in urine Hex4 ([3]; Cohort 2, 48 months, listed as cipaglucosidase alfa/miglustat): −4.0%
patients with abnormal baseline Hex4 who had normal Hex4 levels at Month 48 ([3]; ERT-experienced (four of five)): 80.0%
patients whose urine Hex4 decreased numerically from baseline (n/N) ([3]; ERT-experienced, 12 months): 16/16
patients whose urine Hex4 decreased numerically from baseline (n/N) ([3]; ERT-experienced, 24 months): 11/14
patients whose urine Hex4 decreased numerically from baseline (n/N) ([3]; ERT-experienced, 36 months): 11/12
patients whose urine Hex4 decreased numerically from baseline (n/N) ([3]; ERT-experienced, 48 months): 6/9
patients with abnormal baseline Hex4 who returned to normal Hex4 levels at Month 48 ([3]; ERT-naïve ambulatory (one of four)): 25.0%
patients whose urine Hex4 decreased numerically from baseline (n/N) ([3]; ERT-naïve, 12 months): 5/6
patients whose urine Hex4 decreased numerically from baseline (n/N) ([3]; ERT-naïve, 24 months): 5/6
patients whose urine Hex4 decreased numerically from baseline (n/N) ([3]; ERT-naïve, 36 months): 4/5
patients whose urine Hex4 decreased numerically from baseline (n/N) ([3]; ERT-naïve, 48 months): 4/5
Urinary Hex4, % CFBL mean ([3]; Non-ambulatory ERT-experienced, 12 months): −15.6%
Urinary Hex4, % CFBL mean ([3]; Non-ambulatory ERT-experienced, 24 months): −34.1%
Urinary Hex4, % CFBL mean ([3]; Non-ambulatory ERT-experienced, 36 months): −36.5%
Urinary Hex4, % CFBL mean ([3]; Non-ambulatory ERT-experienced, 48 months): −9.4 ) %
